Reference: US20240150377A1, “MODULATORS OF CYSTIC FIBROSIS TRANSMEMBRANE CONDUCTANCE REGULATOR” (VERTEX PHARMACEUTICALS INCORPORATED, priority 2020, published 2024)
Like-named read-outs stand apart in the source and are kept apart here. Each block holds one compound with its values, some of them ahead of it.

Biological target: T1, CFTR (Homo sapiens, UniProt P13569, DEL508-508)
T1 construct: endogenous in cells; host or cells: primary human bronchial epithelial cells from CF subjects (F508del/MF-HBE), differentiated at air-liquid interface
Experiment: HBE assay: Ussing chamber assay of CFTR-mediated short-circuit currents
Format: cell-based
Settings: for EC50: read-out: HBE EC50
In short: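 CFTR-mediated Isc (μA/cm²) equals the peak response to apical 20 μM forskolin minus the residual after a 20 μM each BPO/GlyH-101/CFTR inhibitor 172 cocktail, recorded in Ussing chambers at Vhold 0 mV, 37 °C, pH 7.4, with 30 μM apical amiloride. Cells were F508del/MF HBE cultures preincubated 18-24 h with corrector (concentration range or 10 μM) plus 1 μM ivacaftor in 20% human serum.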

[1] = Table 13, read-out: HBE Max Activity (%)
[2] = Table 12, at 10 μM, read-out: HBE Activity at 10 μM (%)
[3] = Table 11, read-out: HBE Max Activity (%)
[4] = HBE assay, 10 μM, read-out: HBE Activity at 10 μM (%)
[5] = Table 13, at 10 μM, read-out: HBE Activity at 10 μM (%)
[6] = Table 10, read-out: HBE Max activity (%)
[7] = HBE assay, read-out: HBE Max activity (%)
[8] = Table 11, at 10 μM, read-out: HBE Activity at 10 μM (%)
[9] = Table 10, at 10 μM, read-out: HBE activity at 10 (μM) (%)
[10] = Table 12, read-out: HBE Max Activity (%)

T1 sequence (P13569 with tags, fused parts or gaps DEL508-508): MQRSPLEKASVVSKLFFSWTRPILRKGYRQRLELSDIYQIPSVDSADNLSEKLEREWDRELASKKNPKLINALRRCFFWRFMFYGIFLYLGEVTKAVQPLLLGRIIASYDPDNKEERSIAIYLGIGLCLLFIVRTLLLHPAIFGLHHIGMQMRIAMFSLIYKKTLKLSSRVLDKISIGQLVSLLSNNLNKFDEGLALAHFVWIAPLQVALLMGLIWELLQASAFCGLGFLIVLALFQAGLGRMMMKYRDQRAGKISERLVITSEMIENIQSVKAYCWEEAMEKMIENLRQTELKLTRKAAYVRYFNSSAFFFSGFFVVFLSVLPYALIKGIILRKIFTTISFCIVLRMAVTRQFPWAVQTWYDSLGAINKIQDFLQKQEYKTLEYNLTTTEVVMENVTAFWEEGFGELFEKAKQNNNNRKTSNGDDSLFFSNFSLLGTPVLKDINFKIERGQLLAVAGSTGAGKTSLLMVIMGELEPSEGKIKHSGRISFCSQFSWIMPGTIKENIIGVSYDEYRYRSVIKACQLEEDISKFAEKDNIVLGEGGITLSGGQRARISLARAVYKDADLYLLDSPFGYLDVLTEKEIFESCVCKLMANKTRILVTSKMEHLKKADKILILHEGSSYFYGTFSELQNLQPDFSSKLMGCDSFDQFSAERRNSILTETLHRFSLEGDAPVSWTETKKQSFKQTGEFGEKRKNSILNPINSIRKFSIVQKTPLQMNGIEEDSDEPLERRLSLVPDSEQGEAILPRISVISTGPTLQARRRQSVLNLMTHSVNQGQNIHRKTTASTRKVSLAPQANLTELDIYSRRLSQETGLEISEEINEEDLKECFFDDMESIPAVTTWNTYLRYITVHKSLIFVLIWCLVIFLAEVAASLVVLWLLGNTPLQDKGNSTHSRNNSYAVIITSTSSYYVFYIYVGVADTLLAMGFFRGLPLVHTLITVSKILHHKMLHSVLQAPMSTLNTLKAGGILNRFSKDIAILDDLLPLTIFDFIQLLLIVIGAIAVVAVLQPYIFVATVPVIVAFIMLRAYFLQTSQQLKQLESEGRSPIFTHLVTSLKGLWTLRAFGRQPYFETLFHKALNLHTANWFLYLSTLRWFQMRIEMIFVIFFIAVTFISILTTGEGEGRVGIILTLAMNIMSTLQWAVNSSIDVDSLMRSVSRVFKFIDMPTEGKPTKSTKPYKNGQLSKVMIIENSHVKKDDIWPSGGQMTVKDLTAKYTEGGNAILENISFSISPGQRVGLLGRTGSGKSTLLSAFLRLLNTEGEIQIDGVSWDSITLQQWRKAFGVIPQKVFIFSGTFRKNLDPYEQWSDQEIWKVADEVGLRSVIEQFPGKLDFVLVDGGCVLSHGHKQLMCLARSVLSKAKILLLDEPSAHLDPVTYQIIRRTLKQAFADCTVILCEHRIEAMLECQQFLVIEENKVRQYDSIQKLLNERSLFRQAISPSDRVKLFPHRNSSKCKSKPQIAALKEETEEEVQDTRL

SMILES: Cc1cccc(C)c1-c1cc2nc(n1)NS(=O)(=O)c1cccc(c1)C(=O)N(Cc1nc(C)c(C)n1C)[C@H](CC(C)(C)C)CO2 [Compound 269]
activation at 10 µM [2]: > 600%

SMILES: Cc1cccc(C)c1-c1cc2nc(n1)NS(=O)(=O)c1cccc(c1)C(=O)N(Cc1nccc(NC3CCCCC3)n1)[C@H](CC(C)(C)C)CO2 [Compound 614]
EC50 (Table 11): < 1000 nM | Emax [3]: > 60%

SMILES: Cc1cccc(C)c1-c1cc2nc(n1)NS(=O)(=O)c1cccc(c1)C(=O)N(CC1CC3(C1)CC(NC(=O)OC1CC1)C3)[C@H](CC(C)(C)C)CO2 (stereo partly drawn) [Compound 1002]
activation at 10 µM [5]: > 600%

SMILES: Cc1cccc(C)c1-c1cc2nc(n1)NS(=O)(=O)c1cccc(c1)C(=O)N(CC(=O)N1CCCCC1c1ccccc1F)[C@H](CC(C)(C)C)CO2 (stereo partly drawn) [Compound 176]
activation at 10 µM [5]: > 600%

SMILES: CNC(=O)COc1ccccc1CN1C(=O)c2cccc(c2)S(=O)(=O)Nc2nc(cc(-c3c(C)cccc3C)n2)OC[C@H]1CC(C)(C)C [Compound 776]
EC50 (Table 10): < 1000 nM | Emax [6]: > 60%

SMILES: Cc1cccc(C)c1-c1cc2nc(n1)NS(=O)(=O)c1cccc(c1)C(=O)N(Cc1ncc(N3CCC(C)CC3)cn1)[C@H](CC(C)(C)C)CO2 [Compound 719]
EC50 (Table 11): < 1000 nM | Emax [3]: > 60%

SMILES: CC[C@@H](C)Oc1cnc(CN2C(=O)c3cccc(c3)S(=O)(=O)Nc3nc(cc(-c4c(C)cccc4C)n3)OC[C@H]2CC(C)C)nc1 [Compound 1391]
EC50 (HBE assay): < 1000 nM | Emax [7]: > 60%

SMILES: CO[C@H]1C[C@@H](Oc2cnc(CN3C(=O)c4cccc(c4)S(=O)(=O)Nc4nc(cc(-c5c(C)cccc5C)n4)OC[C@H]3CC(C)C)nc2)C1 [Compound 1432]
EC50 (HBE assay): < 1000 nM | Emax [7]: > 60%

SMILES: Cc1cccc(C)c1-c1cc2nc(n1)NS(=O)(=O)c1cccc(c1)C(=O)N(Cc1cccc(N3CCC[C@@H]3CC(C)C)n1)[C@H](CC(C)(C)C)CO2 (stereo in doubt) [Compound 1429]
EC50 (HBE assay): < 1000 nM

SMILES: Cc1cccc(C)c1-c1cc2nc(n1)NS(=O)(=O)c1cccc(c1)C(=O)N(Cc1ncc(OC(C)C)cc1F)[C@H](CC1CC1)CO2 [Compound 1467]
EC50 (HBE assay): 1000 to 3000 nM | Emax [7]: > 60%

SMILES: Cc1cccc(C)c1-c1cc2nc(n1)NS(=O)(=O)c1cccc(c1)C(=O)N(Cc1nccc(N(C)C3CC4(CC4)C3)n1)[C@H](CC(C)(C)C)CO2 [Compound 615]
EC50 (Table 11): < 1000 nM | Emax [3]: > 60%

SMILES: Cc1cccc(C)c1-c1cc2nc(n1)NS(=O)(=O)c1cccc(c1)C(=O)N(CC(=O)N1CCOCC1)[C@H](CC(C)(C)C)CO2 [Compound 197]
activation at 10 µM [5]: > 600%

SMILES: Cc1cccc(C)c1-c1cc2nc(n1)NS(=O)(=O)c1cccc(c1)C(=O)C(Cc1ccc(C3CCCOC3)cn1)[C@H](CC(C)(C)C)CO2 (stereo partly drawn) [Compound 1065]
EC50 (Table 12): < 1000 nM | Emax [10]: > 60%

SMILES: CCC(C)Oc1cnc(CN2C(=O)c3cccc(c3)S(=O)(=O)Nc3nc(cc(-c4c(C)cccc4C)n3)OC[C@H]2CC(C)(C)C)nc1 (stereo partly drawn) [Compound 1374]
EC50 (HBE assay): < 1000 nM

SMILES: Cc1cccc(C)c1-c1cc2nc(n1)NS(=O)(=O)c1cc(n(C)n1)C(=O)N(Cc1ccc(N3CCOCC3)cc1)[C@H](CC(C)(C)C)CO2 [Compound 906]
EC50 (Table 10): < 1000 nM | Emax [6]: > 60%

SMILES: Cc1cccc(C)c1-c1cc2nc(n1)NS(=O)(=O)c1cccc(c1)C(=O)N(Cc1ccn(C(C)C)n1)[C@H](CC(C)(C)C)CO2 [Compound 480]
Emax [6]: > 60%

SMILES: Cc1cccc(C)c1-c1cc2nc(n1)NS(=O)(=O)c1cccc(c1)C(=O)N(Cc1cnc(N(C)CCOC(C)C)o1)[C@H](CC(C)(C)C)CO2 [Compound 1460]
activation at 10 µM [4]: > 60%

SMILES: Cc1cccc(C)c1-c1cc2nc(n1)NS(=O)(=O)c1cccc(c1)C(=O)N(C[C@H]1CC(C)(C)CCO1)[C@H](CC(C)(C)C)CO2 (single isomer, unassigned) [Compound 24]
activation at 10 µM [8]: > 60%

SMILES: Cc1ccccc1CNC(=O)CN1C(=O)c2cccc(c2)S(=O)(=O)Nc2nc(cc(-c3c(C)cccc3C)n2)OC[C@H]1CC(C)(C)C [Compound 217]
activation at 10 µM [2]: > 600%

SMILES: Cc1cccc(C)c1-c1cc2nc(n1)NS(=O)(=O)c1cccc(c1)C(=O)N(Cc1cncc(N3CC[C@@H]4CCC[C@@H]43)n1)[C@H](CC(C)(C)C)CO2 [Compound 1542]
activation at 10 µM [4]: > 60%

SMILES: Cc1cccc(C)c1-c1cc2nc(n1)NS(=O)(=O)c1cccc(c1)C(=O)N(Cc1nc(N(C)C(C)C)cc(C(F)(F)F)n1)[C@H](CC(C)(C)C)CO2 [Compound 326]
activation at 10 µM [2]: > 600%

Next, values leading:

EC50 (Table 13): 1000 to 3000 nM | Emax [1]: > 60%
SMILES: Cc1cccc(C)c1-c1cc2nc(n1)NS(=O)(=O)c1cccc(c1)C(=O)N(Cc1ccc(N3CC4(CC(=O)C4)C3)cn1)[C@H](CC(C)(C)C)CO2 [Compound 1056]

activation at 10 µM [4]: > 60%
SMILES: Cc1cccc(C)c1-c1cc2nc(n1)NS(=O)(=O)c1cccc(c1)C(=O)N(Cc1cncc(N3CCC[C@@H]3C3CCOCC3)n1)[C@H](CC(C)(C)C)CO2 [Compound 1534]

activation at 10 µM [5]: > 600%
SMILES: Cc1cccc(C)c1-c1cc2nc(n1)NS(=O)(=O)c1cccc(c1)C(=O)N(Cc1c(F)cc(C3CCOCC3)cc1F)[C@H](CC(C)(C)C)CO2 [Compound 517]

HBE Max activity (%) (Table 11): +++ (+++ is >60%) | EC50 (Table 11): < 1000 nM
SMILES: Cc1cccc(C)c1-c1cc2nc(n1)NS(=O)(=O)c1cccc(c1)C(=O)N(Cc1nccc(N3CCC(C)(C)CC3)n1)[C@H](CC(C)(C)C)CO2 [Compound 636]

EC50 (Table 11): < 1000 nM | Emax [3]: > 60%
SMILES: Cc1cccc(C)c1-c1cc2nc(n1)NS(=O)(=O)c1cccc(c1)C(=O)N(CC1CCC(C)(C)O1)[C@H](CC(C)(C)C)CO2 (single isomer, unassigned) [Compound 34]

activation at 10 µM [5]: 30 to 60%
SMILES: Cc1cccc(C)c1-c1cc2nc(n1)NS(=O)(=O)c1cccc(c1)C(=O)N(Cc1ccc(N3CCC(C(=O)O)CC3)cn1)[C@H](CC(C)(C)C)CO2 [Compound 251]

EC50 (HBE assay): 1000 to 3000 nM | Emax [7]: > 60%
SMILES: Cc1cccc(C)c1-c1cc2nc(n1)NS(=O)(=O)c1cccc(c1)C(=O)N(Cc1ncc(OC3CCCC3)cn1)[C@H](CC(C)C)CO2 [Compound 1408]

activation at 10 µM [8]: > 60%
SMILES: Cc1cccc(C)c1-c1cc2nc(n1)NS(=O)(=O)c1cccc(c1)C(=O)N(Cc1ccc(OCC(C)C)cn1)[C@H](CC(C)(C)C)CO2 [Compound 747]

activation at 10 µM [9]: > 60%
SMILES: Cc1cccc(C)c1-c1cc2nc(n1)NS(=O)(=O)c1cccc(c1)C(=O)N(Cc1ccc(C3CCCCC3)c(C)n1)[C@H](CC(C)(C)C)CO2 [Compound 467]

EC50 (Table 12): < 1000 nM | Emax [10]: > 60%
SMILES: Cc1cccc(C)c1-c1cc2nc(n1)NS(=O)(=O)c1cccc(c1)C(=O)N(Cc1cncc(N(C)CCOC(C)C)n1)[C@H](CC(C)(C)C)CO2 [Compound 262]

EC50 (Table 11): < 1000 nM | Emax [3]: > 60%
SMILES: Cc1cccc(C)c1-c1cc2nc(n1)NS(=O)(=O)c1cccc(c1)C(=O)N(Cc1cccc(N(C)CC(C)(C)C)n1)[C@H](CC(C)(C)C)CO2 [Compound 133, (11R)-6-(2,6-Dimethylphenyl)-11-(2,2-dimethylpropyl)-12-[[6-[2,2-dimethylpropyl(methyl)amino]-2-pyridyl]methyl]-2,2-dioxo-9-oxa-2λ^6-thia-3,5,12,19-tetrazatricyclo[12.3.1.14,8]nonadeca-1(18),4(19),5,7,14,16-hexaen-13-one]

EC50 (Table 13): 1000 to 3000 nM | Emax [1]: > 60%
SMILES: Cc1cccc(C)c1-c1cc2nc(n1)NS(=O)(=O)c1cccc(c1)C(=O)N(Cc1cccc(N(CCOC(C)C)C(C)C)n1)[C@H](CC(C)(C)C)CO2 [Compound 236]

activation at 10 µM [9]: > 60%
SMILES: Cc1cccc(C)c1-c1cc2nc(n1)NS(=O)(=O)c1cccc(c1)C(=O)N(Cc1ncccc1-c1c[nH]nc1C1CC1)[C@H](CC(C)(C)C)CO2 [Compound 300]

EC50 (HBE assay): 1000 to 3000 nM | Emax [7]: > 60%
SMILES: CC[C@H](C)Oc1cnc(CN2C(=O)c3cccc(c3)S(=O)(=O)Nc3nc(cc(-c4c(C)cccc4C)n3)OC[C@H]2CC2CC2)nc1 [Compound 1453]

EC50 (Table 10): < 1000 nM | Emax [6]: > 60%
SMILES: Cc1cccc(C)c1-c1cc2nc(n1)NS(=O)(=O)c1cccc(c1)C(=O)N(Cc1nccc3ccccc13)[C@H](CC(C)(C)C)CO2 [Compound 767]

EC50 (Table 12): < 1000 nM | Emax [10]: > 60%
SMILES: Cc1cccc(C)c1-c1cc2nc(n1)NS(=O)(=O)c1cccc(c1)C(=O)N(Cc1ncc(OCCOC(C)C)cn1)[C@H](CC(C)(C)C)CO2 [Compound 559]

activation at 10 µM [4]: > 60%
SMILES: Cc1cccc(C)c1-c1cc2nc(n1)NS(=O)(=O)c1cccc(c1)C(=O)N(Cc1cncc(N3CC[C@@H]4COC[C@@H]43)n1)[C@H](CC(C)(C)C)CO2 [Compound 1540]

activation at 10 µM [5]: > 600%
SMILES: Cc1cccc(C)c1-c1cc2nc(n1)NS(=O)(=O)c1cccc(c1)C(=O)N(CC(=O)NC1CCCC(C)(C)C1)[C@H](CC(C)(C)C)CO2 (stereo partly drawn) [Compound 175]

activation at 10 µM [2]: > 600%
SMILES: Cc1cccc(C)c1-c1cc2nc(n1)NS(=O)(=O)c1cccc(c1)C(=O)N(Cc1cccc(N3CC(C(C)(C)C)CC3(C)C)n1)[C@H](CC(C)(C)C)CO2 (stereo partly drawn) [Compound 877]

activation at 10 µM [9]: > 60%
SMILES: Cc1cccc(C)c1-c1nc2nc(c1C)OC[C@@H](CC(C)(C)C)N(Cc1ncc(N(C)C)cc1N(C)C)C(=O)c1cccc(c1)S(=O)(=O)N2 [Compound 486]

EC50 (Table 13): < 1000 nM
SMILES: Cc1cccc(C)c1-c1cc2nc(n1)NS(=O)(=O)c1cccc(c1)C(=O)N(Cc1ncc([C@@H](O)CO)cn1)[C@H](CC(C)(C)C)CO2 [Compound 1152]

EC50 (Table 11): < 1000 nM | Emax [3]: > 60%
SMILES: Cc1cccc(C)c1-c1cc2nc(n1)NS(=O)(=O)c1cccc(c1)C(=O)N(Cc1cccc(C3CCC3)n1)[C@H](CC(C)(C)C)CO2 [Compound 626]
